Legend:
[1] = tested on: IFN; test: Cytokine Induction in Human Cells: interferon (IFN) secreted by PBMCs, A549/encephalomyocarditis bioassay; format: cell-based; conditions: 18 to 24 hours
How it was run: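 Human PBMCs from healthy donors at 1.5-2×10^6 cells/mL in RPMI with 10% FBS, exposed to compounds (typically 0.1 to 100 μM, ≤1% DMSO) for 18 to 24 h at 37° C. Secreted IFN measured by A549/encephalomyocarditis virus cytopathic-effect bioassay, in alpha reference units/mL against NIH human leukocyte IFN standard.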

[2] = tested on: TNF; test: Cytokine Induction in Human Cells: tumor necrosis factor (TNF) secreted by PBMCs, ELISA; format: cell-based; conditions: 18 to 24 hours
How it was run: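 Human donor PBMCs at 1.5-2×10^6 cells/mL in RPMI with 10% FBS were exposed to compound, generally at 0.1 to 100 μM (≤1% DMSO final), for 18 to 24 h at 37 °C. Secreted TNF in supernatant was measured by ELISA and reported as pg/mL.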
Also: call rule not given here.

Structure (SMILES) | IFN induction ([1]; Dose Concentration 0.1 μM) | IFN induction ([1]; Dose Concentration 1.0 μM) | IFN induction ([1]; Dose Concentration 10.0 μM) | IFN induction ([1]; Dose Concentration 100.0 μM) | TNF induction ([2]; Dose Concentration 0.1 μM) | TNF induction ([2]; Dose Concentration 1.0 μM) | TNF induction ([2]; Dose Concentration 10.0 μM) | TNF induction ([2]; Dose Concentration 100.0 μM)
CCCCc1nc2c(N)nc3cccnc3c2n1CCCCNC(=O)c1c(C)cc(C)cc1C [Example 180] | + | + | + | + | ± | + | + | +
CCCCc1nc2c(N)nc3cccnc3c2n1CCCCNC(=O)CCCCC(=O)OC [Example 182] | − | + | + | + | − | + | + | −
CCCCc1nc2c(N)nc3cccnc3c2n1CCCCNC(=O)c1cccnc1Cl [Example 183] | − | − | − | − | − and + | − and + | − and + | −
CCCCc1nc2c(N)nc3cccnc3c2n1CCCCNC(=O)Cc1ccc(OC)cc1 [Example 187] | − | + | + | + | − | + | + | −
CCCCc1nc2c(N)nc3cccnc3c2n1CCCCNC(=O)c1ccccc1OC [Example 188] | + | + | + | − | − | + | + | −
CCCCCCCOc1ccc(C(=O)NCCCCn2c(CCCC)nc3c(N)nc4cccnc4c32)cc1 [Example 190] | + | + | + | − | − | + | + | −
CCCCc1nc2c(N)nc3cccnc3c2n1CCNC(=O)Cc1ccsc1 [Example 191] |  | + | + | + |  | − | + | +
CCCCc1nc2c(N)nc3cccnc3c2n1CCNC(=O)CCCc1ccc([N+](=O)[O-])cc1 [Example 195] | − | − | + | − | − | + | + | +
CCCCc1nc2c(N)nc3cccnc3c2n1CCNC(=O)Cc1ccc(SC)cc1 [Example 197] | − | − | + | + | − | + | + | +
CCCCc1nc2c(N)nc3cccnc3c2n1CCNC(=O)C1C2CC3C(C2=O)C31 (stereo not shown) [Example 198] | − | − | + | + | − | + | + | +
CCCCc1nc2c(N)nc3cccnc3c2n1CCNC(=O)CCC(F)(F)F [Example 199] | + | − | + | + | − | − | + | +
CCCCCCCCCCCC(=O)NCCn1c(CCCC)nc2c(N)nc3cccnc3c21 [Example 201] | − | − | − | − | − | − | − | +
CCCCc1nc2c(N)nc3cccnc3c2n1CCNC(=O)c1ccc(Br)s1 [Example 204] | + | + | + | + | − | + | + | +
CCCCc1nc2c(N)nc3cccnc3c2n1CCNC(=O)c1cnc(C)cn1 [Example 205] | + | + | + | + | − | + | + | +
CCCCc1nc2c(N)nc3cccnc3c2n1CCNC(=O)c1ccc(Br)o1 [Example 206] | + | + | + | + | − | + | + | +
CCCCc1nc2c(N)nc3cccnc3c2n1CCNC(=O)Cc1cccnc1 [Example 207] | − | − | + | + | − | − | + | +
CCCCc1nc2c(N)nc3cccnc3c2n1CCNC(=O)CCc1cccnc1 [Example 208] | − | − | + | + | − | − and ± | − and + | − and +
CCCCc1nc2c(N)nc3cccnc3c2n1CCNC(=O)CCn1cc([N+](=O)[O-])nc1C [Example 209] | − | − | + | + | − | − | + | +
CCCCc1nc2c(N)nc3cccnc3c2n1CCNC(=O)C1CC(=O)N(Cc2ccc(Cl)cc2)C1 (stereo not shown) [Example 210] | − | − | + | + | + | + | + | +
CCCCc1nc2c(N)nc3cccnc3c2n1CCNC(=O)CCN1C(=O)c2ccccc2C1=O [Example 211] | − | − | + | + | − | − | + | +
CCCCc1nc2c(N)nc3cccnc3c2n1CCNC(=O)CCC(=O)c1cccs1 [Example 212] | − | + | + | + | − | + | + | +
